# Data taken from the supplement of paper PMC13380429.
# What was measured:
# Conditions in all cases: 72 h
# Calu-3 [1] = assay: relative viability EC50 (midpoint between 100% and the lowest measured viability); higher = less toxic
# Caco-2 [2] = assay: as above
# U2OS [3] = assay: as above
# HepG2 [4] = assay: as above
# Vero E6 [5] = assay: as above
# Calu-3 [6] = assay: drug sensitivity score (DSS) for viability; higher = more toxic; extreme values may be limits of the assay
# Caco-2 [7] = assay: as above
# U2OS [8] = assay: as above
# HepG2 [9] = assay: as above
# Vero E6 [10] = assay: as above
# Calu-3 [11] = assay: cell viability relative to DMSO; higher = less toxic
# Caco-2 [12] = assay: as above
# U2OS [13] = assay: as above
# HepG2 [14] = assay: as above
# Vero E6 [15] = assay: as above
SMILES,relative viability EC50 (Calu-3 [1]) [µM],relative viability EC50 (Caco-2 [2]) [µM],relative viability EC50 (U2OS [3]) [µM],relative viability EC50 (HepG2 [4]) [µM],relative viability EC50 (Vero E6 [5]) [µM],drug sensitivity score (Calu-3 [6]),drug sensitivity score (Caco-2 [7]),drug sensitivity score (U2OS [8]),drug sensitivity score (HepG2 [9]),drug sensitivity score (Vero E6 [10]),cell viability (Calu-3 [11]; 1 nM) [%],cell viability (Calu-3 [11]; 10 nM) [%],cell viability (Calu-3 [11]; 100 nM) [%],cell viability (Calu-3 [11]; 1000 nM) [%],cell viability (Calu-3 [11]; 10000 nM) [%],cell viability (Caco-2 [12]; 1 nM) [%],cell viability (Caco-2 [12]; 10 nM) [%],cell viability (Caco-2 [12]; 100 nM) [%],cell viability (Caco-2 [12]; 1000 nM) [%],cell viability (Caco-2 [12]; 10000 nM) [%],cell viability (U2OS [13]; 1 nM) [%],cell viability (U2OS [13]; 10 nM) [%],cell viability (U2OS [13]; 100 nM) [%],cell viability (U2OS [13]; 1000 nM) [%],cell viability (U2OS [13]; 10000 nM) [%],cell viability (HepG2 [14]; 1 nM) [%],cell viability (HepG2 [14]; 10 nM) [%],cell viability (HepG2 [14]; 100 nM) [%],cell viability (HepG2 [14]; 1000 nM) [%],cell viability (HepG2 [14]; 10000 nM) [%],cell viability (Vero E6 [15]; 1 nM) [%],cell viability (Vero E6 [15]; 10 nM) [%],cell viability (Vero E6 [15]; 100 nM) [%],cell viability (Vero E6 [15]; 1000 nM) [%],cell viability (Vero E6 [15]; 10000 nM) [%]
COc1cc([C@@H]2c3cc4c(cc3[C@@H](O[C@@H]3O[C@@H]5CO[C@@H](C)O[C@H]5[C@H](O)[C@H]3O)[C@H]3COC(=O)[C@H]23)OCO4)cc(OC)c1OP(=O)(O)O [etoposide-phosphate],1.49,> 10,> 10,0.478,> 10,5,0,0,10,0.3,107,106,98.3,85.7,47.1,81.7,92.6,91.9,102,107,95.1,104,94.9,99.7,108,88.6,86.8,85.4,59.7,29.5,93.3,97.6,92.7,86.7,88.3
C[C@@H](O)[C@H]1C(=O)N2C(C(=O)O)=C([C@H]3CCCO3)S[C@H]12 [faropenem],> 10,> 10,> 10,> 10,> 10,0,0,0,0,0,106,96.5,99.6,98,105,95,91,101,100,95,101,101,94.6,96.6,98.8,103,99.4,104,103,98.7,97.2,99.5,102,96.8,97.1
CN1CC(=O)N=C1NC(=O)Nc1cccc(Cl)c1 [fenobam],> 10,> 10,> 10,> 10,> 10,0,0,0,0,0,102,101,100,105,97.1,93.1,94.4,90.1,103,97.7,96.6,106,98.2,102,98.3,110,99.4,112,97,103,100,97,99.5,100,101
CC(=O)O[C@]1(C(C)=O)CC[C@H]2[C@@H]3C[C@H](C)C4=CC(=O)C=C[C@]4(C)[C@@]3(F)[C@@H](O)C[C@@]21C [fluorometholone-acetate],> 10,> 10,> 10,> 10,> 10,0,0.1,0,0,0,103,100,97.8,106,98.9,99.9,109,99.1,104,86.6,105,103,99.3,98.5,96.2,102,95.6,101,92.7,89.7,93.5,98.3,93.9,95.7,90.4
Oc1cc2c(cc1O)[C@@H]1c3ccc(O)c(O)c3OC[C@]1(O)C2 [hematoxylin],> 10,> 10,> 10,> 10,> 10,0,0,0,0,0,97.1,103,92.4,110,96.1,98.4,89.9,93,108,90,98.5,93.5,99.2,103,91.1,104,100,96.4,104,105,95.2,99.3,92.7,95.5,102
Fc1ccc2c(CCNCc3cccc(OCC(F)(F)C(F)F)c3)c[nH]c2c1 [idalopirdine],> 10,> 10,> 10,> 10,> 10,0,0,0,0,0.5,90.3,102,91.4,101,99.7,96.3,97.5,91.5,87.1,109,95.3,97,99.7,95.4,96.7,97.5,93.7,99.2,94.8,88.2,101,95.2,98.7,95.2,84.9
C[C@@H](O)[C@H]1C(=O)N2C(C(=O)O)=C(SCCNC=N)C[C@H]12 [imipenem],> 10,> 10,> 10,> 10,> 10,0,0,0,0,0,88,87.6,107,86.3,93.4,97.2,98.4,98.2,92.6,106,99.1,98.2,102,97.4,97.2,98.7,98.5,96.2,100,107,97.9,102,89.2,100,110
N#CCC1(n2cc(-c3ncnc4[nH]ccc34)cn2)CN(C2CCN(C(=O)c3ccnc(C(F)(F)F)c3F)CC2)C1 [itacitinib],> 10,> 10,> 10,> 10,> 10,0,0,0,0,0,111,104,101,93.6,90.4,101,98.6,97.2,132,90.1,98.6,91,97.5,95.8,96,95.3,98.9,95,96.1,91.6,100,96.1,98.3,100,98.5
NC[C@H]1O[C@H](O[C@H]2[C@H](O)[C@@H](O[C@H]3O[C@H](CO)[C@@H](O)[C@H](N)[C@H]3O)[C@H](N)C[C@@H]2N)[C@H](O)[C@@H](O)[C@@H]1O [kanamycin],> 10,> 10,> 10,> 10,> 10,0,0,0,0,0,100,104,101,114,95.2,94.3,93.1,88.1,89.3,96.1,102,102,96.1,98.3,98.2,109,88.9,88,96.5,98.5,109,106,99.3,99,102
CC(Oc1c(Cl)cccc1Cl)C1=NCCN1 (stereo not given) [lofexidine],> 10,> 10,> 10,> 10,> 10,0,0,0,0,0,99.3,108,87.6,103,94.6,100,106,101,93.8,95.6,103,106,100,100,99.6,90.7,105,104,90.7,100,101,101,95.7,103,103
O=C(NC(=O)c1c(F)cccc1F)Nc1cc(Cl)c(OC(F)(F)C(F)C(F)(F)F)cc1Cl (stereo not given) [lufenuron],> 10,> 10,> 10,> 10,> 10,0,0,0,0,0,95.4,98.9,92.1,83.2,95.3,100,95.1,93.8,96.8,95,100,95.1,96.7,98.4,99.7,98.6,94.3,109,101,101,99.2,108,98.3,110,100
CCCCN(CCCC)CC(O)c1cc(Cl)cc2c1-c1ccc(Cl)cc1/C2=C/c1ccc(Cl)cc1 (stereo not given) [lumefantrine],> 10,> 10,> 10,> 10,> 10,0,0,0,0.1,0,82.9,102,90,102,94.4,99.8,92.6,101,94.5,89.5,101,101,103,103,95.2,98.9,113,107,108,84.2,102,102,102,105,91.2
COc1cccc2c1C(=O)c1c(O)c3c(c(O)c1C2=O)C[C@@](O)(C(=O)CO)C[C@@H]3O[C@H]1C[C@H](N2CCO[C@H](OC)C2)[C@H](O)[C@H](C)O1 [nemorubicin],0.0012,0.002,0.0025,0.0011,0.0016,38.4,35.1,44.1,48,46.1,69.2,21.2,35.1,31.5,30,88.8,24.6,30.4,32.6,24.5,91.8,1.3,0.9,0.3,1.3,55.4,0.1,6.3,3,1.5,72.6,2.4,2.8,0.8,2.7
OCc1cccnc1 [nicotinyl-alcohol-tartrate],> 10,> 10,> 10,> 10,> 10,0,0,0,0,0,96.6,100,92.7,99.3,96.4,97.8,97,102,96.1,106,102,104,96.7,100,95.5,95.4,102,91.2,104,96.1,92.6,101,87.8,101,91.8
